We go through 24 compounds from PubChem BioAssay AID330 (DTP/NCI, 2004).

Each structure is given as a SMILES string. Where “and” joins values, the source holds several entries; their conditions need not be identical. Equal values may be shown once. Toxic doses and inconclusive results are not listed.

The subject of this test is P388 leukemia ip, CD2F1 mice, survival T/C. Nature of the test: NCI In Vivo Anticancer Drug Screen. Data for tumor model P388 Leukemia (intraperitoneal) in CD2F1 (CDF1) mice. The note with it: endpoint: median survival time, higher = longer survival. Summed up: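 Mice carrying the transplanted tumor received test compound or vehicle. Survival was recorded in each group, and the value is the treated-group measurement divided by that of the vehicle-treated control group.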

The mark [1] stands for this setting: dose: 6.25 mg/kg/injection, schedule: Q01DX009 (ip), vehicle: saline with Tween-80.
Setting [2] is: dose: 12.5 mg/kg/injection, schedule: Q01DX009 (ip), vehicle: saline with Tween-80.
The mark [3] stands for this setting: dose: 25.0 mg/kg/injection, schedule: Q04DX002 (ip), vehicle: saline with Tween-80.
The mark [4] stands for this setting: dose: 50.0 mg/kg/injection, schedule: Q04DX002 (ip), vehicle: saline with Tween-80.
Setting [5] is: dose: 50.0 mg/kg/injection, schedule: Q01DX005 (ip), vehicle: saline with Tween-80.
Where [6] appears, read: dose: 100.0 mg/kg/injection, schedule: Q01DX005 (ip), vehicle: saline with Tween-80.
Where [7] appears, read: dose: 200.0 mg/kg/injection, schedule: Q01DX005 (ip), vehicle: saline with Tween-80.
Setting [8] is: dose: 50.0 mg/kg/injection, schedule: Q01DX009 (ip), vehicle: Klucel (hydroxypropylcellulose) (HPC).
[9] abbreviates: dose: 100.0 mg/kg/injection, schedule: Q01DX009 (ip), vehicle: Klucel (hydroxypropylcellulose) (HPC).
Setting [10] is: dose: 200.0 mg/kg/injection, schedule: Q01DX009 (ip), vehicle: Klucel (hydroxypropylcellulose) (HPC).
Setting [11] is: dose: 60.0 mg/kg/injection, schedule: Q01DX005 (ip), vehicle: saline with Tween-80.
[12] abbreviates: dose: 120.0 mg/kg/injection, schedule: Q01DX005 (ip), vehicle: saline with Tween-80.
Where [13] appears, read: dose: 240.0 mg/kg/injection, schedule: Q01DX005 (ip), vehicle: saline with Tween-80.
Setting [14] is: dose: 60.0 mg/kg/injection, schedule: Q01DX005 (ip), vehicle: Klucel (hydroxypropylcellulose) (HPC).
Where [15] appears, read: dose: 120.0 mg/kg/injection, schedule: Q01DX005 (ip), vehicle: Klucel (hydroxypropylcellulose) (HPC).
The mark [16] stands for this setting: dose: 25.0 mg/kg/injection, schedule: Q01DX009 (ip), vehicle: Klucel (hydroxypropylcellulose) (HPC).

For `Cc1cc2nc(C=C(C(F)(F)F)C(F)(F)F)oc2cc1C`, the T/C by setting is: (dose: 1.56 mg/kg/injection, schedule: Q01DX009 (ip), vehicle: saline with Tween-80) 98 % of control; (dose: 3.13 mg/kg/injection, schedule: Q01DX009 (ip), vehicle: saline with Tween-80) 98 % of control; under setting [1], 95 % of control; under setting [2], 93 % of control.
Consider `CN(C)C12CCCCCCC1S(=O)(=O)C2` (configuration not stated), for which the T/C is 98 % of control under setting [3]; 98 % of control under setting [4]; 102 % of control and 96 % of control (dose: 100.0 mg/kg/injection, schedule: Q04DX002 (ip), vehicle: saline with Tween-80).
`COc1cccc2c1C(=O)c1c(O)c3c(c(O)c1C2=O)C[C@@](O)(C(C)O)C[C@@H]3OC1CC(NC(=O)C(F)(F)F)C(O)C(C)O1` (some centres not stated): the T/C reads like this: (dose: 1.56 mg/kg/injection, schedule: Q01DX009 (ip), vehicle: water) 118 % of control; (dose: 6.25 mg/kg/injection, schedule: Q01DX009 (ip), vehicle: water) 150 % of control; (dose: 12.5 mg/kg/injection, schedule: Q01DX009 (ip), vehicle: water) 156 % of control and 169 % of control; (dose: 25.0 mg/kg/injection, schedule: Q01DX009 (ip), vehicle: water) 181 % of control and 189 % of control.
`COC(=O)c1cc(O)c2c(c1C(=O)OC)C[C@H]1[C@@H]3CC=C4C[C@@H](O)CC[C@]4(C)[C@H]3CC[C@]21C`: the T/C under setting [5] is 97 % of control, the T/C under setting [6] is 87 % of control and the T/C under setting [7] was 87 % of control.
`CSC(=Nc1cccc(C)c1)NC#N`: the T/C is 103 % of control under setting [8], 106 % of control under setting [9] and 105 % of control under setting [10].
Take `CC(C)CC(=O)C(c1ccccc1)C(CC(C)C)C(=O)C1C(c2ccccc2)CC(=O)C(C(C)C)C1c1ccccc1` (configuration not stated): the T/C reads like this: under setting [5], 101 % of control; under setting [6], 92 % of control; under setting [7], 87 % of control.
As for `c1ccc(Cc2cc(-c3cc(Cc4ccccc4)[nH]n3)n[nH]2)cc1`, the T/C was 101 % of control (dose: 60.0 mg/kg/injection, schedule: Q01DX005 (ip), vehicle: Klucel + Tween-80); 106 % of control (dose: 120.0 mg/kg/injection, schedule: Q01DX005 (ip), vehicle: Klucel + Tween-80); 107 % of control (dose: 240.0 mg/kg/injection, schedule: Q01DX005 (ip), vehicle: Klucel + Tween-80).
As to `O=c1[nH]c2ccccc2c2ccccc12`, the T/C is 90 % of control (dose: 100.0 mg/kg/injection, schedule: Q04DX003 (ip), vehicle: saline with Tween-80); 90 % of control (dose: 200.0 mg/kg/injection, schedule: Q04DX003 (ip), vehicle: saline with Tween-80); 90 % of control (dose: 400.0 mg/kg/injection, schedule: Q04DX003 (ip), vehicle: saline with Tween-80).
For `COc1ccc(N/C(=C/C#N)c2ccccc2)cc1`, the T/C is, setting by setting: (dose: 100.0 mg/kg/injection, schedule: Q01DX001 (ip), vehicle: saline with Tween-80) 100 % of control; (dose: 200.0 mg/kg/injection, schedule: Q01DX001 (ip), vehicle: saline with Tween-80) 99 % of control; (dose: 400.0 mg/kg/injection, schedule: Q01DX001 (ip), vehicle: saline with Tween-80) 95 % of control.
As to `C=C1CC(C)(C)CN(Cc2ccc([N+](=O)[O-])cc2)C(C(=O)OC)=C1C(=O)OC`, the T/C runs as follows: (dose: 50.0 mg/kg/injection, schedule: Q01DX005 (ip), vehicle: Klucel (hydroxypropylcellulose) (HPC)) 87 % of control; (dose: 100.0 mg/kg/injection, schedule: Q01DX005 (ip), vehicle: Klucel (hydroxypropylcellulose) (HPC)) 95 % of control; (dose: 200.0 mg/kg/injection, schedule: Q01DX005 (ip), vehicle: Klucel (hydroxypropylcellulose) (HPC)) 94 % of control.
As to `CCc1cccc(C)c1N1C(=O)C(=O)C(c2nc3ccccc3o2)/C(=N\NS(=O)(=O)c2ccc(C)cc2)C1=O` (configuration not stated), the T/C by setting is: under setting [11], 98 % of control; under setting [12], 100 % of control; under setting [13], 97 % of control.
For the compound `NC1CC2CCCCC2CC1c1ccccc1` (configuration not stated), the T/C by setting is: (dose: 100.0 mg/kg/injection, schedule: Q01DX001 (ip), vehicle: Klucel (hydroxypropylcellulose) (HPC)) 91 % of control; (dose: 200.0 mg/kg/injection, schedule: Q01DX001 (ip), vehicle: Klucel (hydroxypropylcellulose) (HPC)) 97 % of control; (dose: 400.0 mg/kg/injection, schedule: Q01DX001 (ip), vehicle: Klucel (hydroxypropylcellulose) (HPC)) 96 % of control.
Regarding `OCC1C=CCC1` (configuration not stated), the T/C is 99 % of control under setting [1]; 101 % of control under setting [2]; 90 % of control (dose: 25.0 mg/kg/injection, schedule: Q01DX009 (ip), vehicle: saline with Tween-80).
Regarding `O=CCC(O)C(O)C(O)CO` (configuration not stated), the T/C runs as follows: (dose: 150.0 mg/kg/injection, schedule: Q01DX009 (ip), vehicle: saline) 107 % of control; (dose: 300.0 mg/kg/injection, schedule: Q01DX009 (ip), vehicle: saline) 100 % of control and 104 % of control and 121 % of control; (dose: 600.0 mg/kg/injection, schedule: Q01DX009 (ip), vehicle: saline) 107 % of control and 112 % of control and 121 % of control; (dose: 1200.0 mg/kg/injection, schedule: Q01DX009 (ip), vehicle: saline) 103 % of control; (dose: 2400.0 mg/kg/injection, schedule: Q01DX009 (ip), vehicle: saline) 110 % of control and 91 % of control.
Regarding `CN=C(N)NN=C(c1ccc(Br)cc1)c1ccc(Br)cc1`, the T/C was 100 % of control and 106 % of control under setting [3]; 103 % of control and 124 % of control under setting [4].
Consider `CC1=C(C(=O)Nc2cc(C)ccc2C)C(c2cccc([N+](=O)[O-])c2)C(C(=O)Nc2cc(C)ccc2C)=C(C)N1`, for which the T/C is 88 % of control under setting [14] and 89 % of control under setting [15].
For `COc1cc(/C=C/C(NC(C)=O)c2cccc(O)c(=O)c2)cc(OC)c1OC` (configuration not stated), the T/C was 90 % of control (dose: 12.5 mg/kg/injection, schedule: Q01DX009 (ip), vehicle: Klucel (hydroxypropylcellulose) (HPC)); 93 % of control under setting [16]; 98 % of control under setting [8]; 107 % of control under setting [9]; 116 % of control under setting [10].
Turning to `NC(=S)SCCC(=O)N1CCCCC1`, the T/C (dose: 25.0 mg/kg/injection, schedule: Q04DX002 (ip), vehicle: Klucel (hydroxypropylcellulose) (HPC)) was 101 % of control; the T/C (dose: 50.0 mg/kg/injection, schedule: Q04DX002 (ip), vehicle: Klucel (hydroxypropylcellulose) (HPC)) is 95 % of control; the T/C (dose: 100.0 mg/kg/injection, schedule: Q04DX002 (ip), vehicle: Klucel (hydroxypropylcellulose) (HPC)) is 104 % of control and 95 % of control.
As for `NCCCNc1cc(O)cc2cccnc12`, the T/C by setting is: (dose: 50.0 mg/kg/injection, schedule: Q01DX005 (ip), vehicle: saline) 93 % of control; (dose: 100.0 mg/kg/injection, schedule: Q01DX005 (ip), vehicle: saline) 95 % of control.
`COc1cc(C=Nc2c[nH]c(=O)[nH]c2=O)ccc1O`: the T/C is, setting by setting: (dose: 50.0 mg/kg/injection, schedule: Q01DX009 (ip), vehicle: saline) 93 % of control; (dose: 100.0 mg/kg/injection, schedule: Q01DX009 (ip), vehicle: saline) 96 % of control; (dose: 200.0 mg/kg/injection, schedule: Q01DX009 (ip), vehicle: saline) 98 % of control.
As for `COc1ccc(/C=C/C(=N/NC(=O)c2ccccc2)C(C)CN(C)C)cc1` (configuration not stated), the T/C under setting [14] was 104 % of control and the T/C under setting [15] is 111 % of control.
In the case of `Nc1nnc(-c2ccc(-c3nnc(N)o3)cc2)o1`, the T/C runs as follows: under setting [11], 98 % of control; under setting [12], 100 % of control; under setting [13], 100 % of control.
Consider `CC(N)(CSCc1ccccc1)C(=O)O` (configuration not stated), for which the T/C under setting [16] was 100 % of control, the T/C under setting [8] was 103 % of control and the T/C under setting [9] was 107 % of control.
Take `O=S(=O)(F)c1cccc(Cl)c1C[P+](c1ccccc1)(c1ccccc1)c1ccccc1`: the T/C (dose: 15.0 mg/kg/injection, schedule: Q01DX005 (ip), vehicle: saline with Tween-80) is 112 % of control.
